Test results reported in ChEMBL document CHEMBL4020835, “Optimization of Metabolic and Renal Clearance in a Series of Indole Acid Direct Activators of 5'-Adenosine Monophosphate-Activated Protein Kinase (AMPK)” (J Med Chem, 2018).
Converted amounts (≈) assume the structure as drawn. Blank lines part the entries; values can stand above or below the compound they belong to.

Assays:
physchem [1] = settings: buffer, pH 7.4
physchem [2] = test: physchem
in vivo = settings: Wistar Han, rat, urine, iv, 1 mg/kg
[3] = AUC (0 to 24 hrs) in cynomolgus monkey at 1 mg/kg, iv via bolus dose measured up to 24 hrs post dose by LC-MS/MS analysis; assay type: ADME, organism-based, Macaca fascicularis; set-up: time < 24 hr, dose 1 mg/kg, route intravenous; settings: in vivo
[4] = Volume of distribution at steady state in cynomolgus monkey at 1 mg/kg, iv via bolus dose measured up to 24 hrs post dose by LC-MS/MS analysis; assay type: ADME, organism-based, Macaca fascicularis; settings: in vivo, read-out: Vdss
[5] = Oral bioavailability in cynomolgus monkey at 3 mg/kg via gavage measured up to 24 hrs post dose by LC-MS/MS analysis; assay type: ADME, organism-based, Macaca fascicularis; settings: in vivo
[6] = Cmax in cynomolgus monkey at 3 mg/kg via oral gavage measured up to 24 hrs post dose by LC-MS/MS analysis; assay type: ADME, organism-based, Macaca fascicularis; set-up: dose 3 mg/kg, route oral; settings: in vivo
[7] = Tmax in Wistar Han rat at 3 mg/kg via oral gavage by LC-MS/MS analysis; assay type: ADME, organism-based; settings: in vivo
[8] = rat, in vivo, iv, 1 mg/kg, 24 h
[9] = Thermodynamic solubility of the compound in sodium phosphate buffer at pH 7.4 after 24 hrs by nitrogen detection method; assay type: physicochemical; settings: read-out: Therm_solubility
[10] = AUC (0 to 24 hrs) in cynomolgus monkey at 3 mg/kg via oral gavage measured up to 24 hrs post dose by LC-MS/MS analysis; assay type: ADME, organism-based, Macaca fascicularis; set-up: time < 24 hr, dose 3 mg/kg, route oral; settings: in vivo
[11] = Drug excretion in cynomolgus monkey urine assessed as compound recovered at 1 mg/kg, iv measured over 24 hrs by LC/MS analysis; assay type: ADME, organism-based, Macaca fascicularis; settings: read-out: Drug recovery
Rattus norvegicus [12] = test: (§1) Oral bioavailability in Wistar Han rat at 3 mg/kg via gavage measured up to 24 hrs post dose by LC-MS/MS analysis; assay type: ADME, organism-based; settings: in vivo, 24 h
[13] = Cmax in Wistar Han rat at 3 mg/kg via oral gavage measured up to 24 hrs post dose by LC-MS/MS analysis; assay type: ADME, organism-based; set-up: dose 3 mg/kg, route oral; settings: in vivo
Rattus norvegicus [14] = test: (§2) AUC (0 to 24 hrs) in Wistar Han rat at 3 mg/kg via oral gavage measured up to 24 hrs post dose by LC-MS/MS analysis; assay type: ADME, organism-based; set-up: dose 3 mg/kg, time < 24 hr, route oral; settings: in vivo, 24 h
Rattus norvegicus [15] = test: (§3) AUC (0 to 24 hrs) in Wistar Han rat at 1 mg/kg, iv via bolus dose measured up to 24 hrs post dose by LC-MS/MS analysis; assay type: ADME, organism-based; set-up: time < 24 hr, dose 1 mg/kg, route intravenous; settings: in vivo, 24 h
[16] = Tmax in cynomolgus monkey at 3 mg/kg via oral gavage by LC-MS/MS analysis; assay type: ADME, organism-based, Macaca fascicularis; settings: in vivo
[17] = Volume of distribution at steady state in Wistar Han rat at 1 mg/kg, iv via bolus dose measured up to 24 hrs post dose by LC-MS/MS analysis; assay type: ADME, organism-based; settings: in vivo, read-out: Vdss
[18] = as §1; assay type: ADME, organism-based; settings: Wistar Han, in vivo
[19] = as §2; assay type: ADME, organism-based; set-up: dose 3 mg/kg, time < 24 hr, route oral; settings: Wistar Han, in vivo
[20] = as §3; assay type: ADME, organism-based; set-up: time < 24 hr, dose 1 mg/kg, route intravenous; settings: Wistar Han, in vivo

Structure (SMILES): O=C(O)c1c[nH]c2cc(Cl)c(-c3ccc(C4CCCCO4)cc3)cc12 (stereo unspecified)
logD (physchem [1]): 2.8
pKa (physchem [2]): 4.9

Structure (SMILES): O=C(O)c1c[nH]c2cc(F)c(-c3ccc(C4(O)CCC4)cc3)c(F)c12
dose excreted at 24 h (in vivo): 10.7%
logD (physchem [1]): 1.3
pKa (physchem [2]): 4.9

Structure (SMILES): O=C(O)c1c[nH]c2cc(F)c(-c3ccc([C@H]4CCCCO4)cc3)c(F)c12
logD (physchem [1]): 2

Structure (SMILES): N#Cc1cc2[nH]cc(C(=O)O)c2cc1-c1ccc(C2(O)CCC2)cc1
logD (physchem [1]): 1.1
pKa (physchem [2]): 4.6

Structure (SMILES): O=C(O)c1c[nH]c2cc(Cl)c(-c3ccc(OCCCN4CCOCC4)cc3)cc12
dose excreted at 24 h (in vivo): 12%
logD (physchem [1]): 1.8
pKa (physchem [2]): 5.4 to 7.1

Structure (SMILES): O=C(O)c1c[nH]c2cc(F)c(-c3ccc([C@@H]4CCCCO4)cc3)c(F)c12
dose excreted at 24 h (in vivo): 1.6%
AUC(0-t) at 24 h [3]: 35900 ng·h/mL
Vd [4]: 0.3 L/kg
logD (physchem [1]): 1.9
bioavailability [5]: 85%
Cmax [6]: 8180 ng/mL
Tmax [7]: 2.7 h
solubility thermodynamic at 24 h [9]: 14 µM (≈ 5 µg/mL)
AUC(0-t) at 24 h [10]: 91600 ng·h/mL
dose excreted at 24 h [11]: 2.2%
pKa (physchem [2]): 5
bioavailability [18]: 26%
Cmax [13]: 1890 ng/mL
AUC(0-t) at 24 h [19]: 12800 ng·h/mL
AUC(0-t) at 24 h [20]: 16400 ng·h/mL
Tmax [16]: 2 h
Vd [17]: 0.31 L/kg

Continued, values first:

dose excreted at 24 h (in vivo): 10%
logD (physchem [1]): 1.1
pKa (physchem [2]): 4.8
Structure (SMILES): O=C(O)c1c[nH]c2cc(Cl)c(-c3ccc(OCCO)cc3)cc12

logD (physchem [1]): 1.7
pKa (physchem [2]): 4.7 to 6.2
Structure (SMILES): CN(C)c1ccc(-c2cc3c(C(=O)O)c[nH]c3cc2Cl)cn1

AUC(0-t) at 24 h [3]: 15500 ng·h/mL
Vd [4]: 0.46 L/kg
logD (physchem [1]): 2.3
bioavailability [5]: 67%
Cmax [6]: 2540 ng/mL
Tmax [7]: 5.5 h
Drug recovery [8]: 1 ng/mL
solubility thermodynamic at 24 h [9]: 120 µM (≈ 41.5 µg/mL)
AUC(0-t) at 24 h [10]: 31200 ng·h/mL
dose excreted at 24 h [11]: < 1%
pKa (physchem [2]): 2.6 to 4.9
F (Rattus norvegicus [12]): 52%
Cmax [13]: 10200 ng/mL
AUC (Rattus norvegicus [14]): 160 µg·h/mL
AUC (Rattus norvegicus [15]): 254 µg·h/mL
Tmax [16]: 1.5 h
Vd [17]: 0.1 L/kg
Structure (SMILES): COc1nc(N(C)C)ccc1-c1cc2c(C(=O)O)c[nH]c2cc1Cl

logD (physchem [1]): 1.8
pKa (physchem [2]): 2.4 to 4.9
Structure (SMILES): COc1ccc(-c2cc3c(C(=O)O)c[nH]c3cc2Cl)cn1

logD (physchem [1]): 1.8
pKa (physchem [2]): 5
Structure (SMILES): COCCOc1ccc(-c2cc3c(C(=O)O)c[nH]c3cc2Cl)cc1

logD (physchem [1]): 2.1
pKa (physchem [2]): 4.8
Structure (SMILES): COc1ccc(-c2cc3c(C(=O)O)c[nH]c3cc2Cl)c(OC)n1
